Test results from patent EP4715056A1, “BIO-BASED TRANS-ACONITATE, PREPARATION METHOD THEREFOR AND USE THEREOF” (Qingdao Institute of Bioenergy and Bioprocess Technology, …, priority 2023, dated 2024).

Experiment: Compatibility (water value method)
Type: physicochemical
Settings: 2.5 g plasticizer and 25 g acetone titrated with deionized water until turbidity; Table 5
Description: (§1) The aconitates and tributyl citrate prepared in the above examples and comparative examples were added as plasticizers to PVC resin to obtain PVC plastics. The PVC plastics include 100 parts of PVC resin, 35 parts of plasticizer, 2 parts of oxidized polyethylene wax, and 5 parts of octyltin maleate. The above raw materials were mixed and prepared using the same mixing process to obtain finished PVC products. The performance tests were performed on different plasticizers and the obtained PVC finished products in the above examples and comparative examples. […] Three points were selected for each group of samples, each point was tested once, and a median value was taken. • 2. […] Compatibility: tests were performed using a water value method. Since water molecules are polar, the compatibility between the plasticizer and water can characterize the compatibility between the plasticizer and polar materials (PVC, PLA, and nitrile rubber). When a certain plasticizer has good compatibility with water, it has good compatibility with PVC, and vice versa. In the experiment, 2.5 g of plasticizer and 25 g of acetone were added to a beaker, titrated with a burette filled with deionized water, and agitated while titrating until turbidity appears, and the volume of deionized water consumed was recorded. • 4. Glass transition temperature (Tg): the glass transition temperature was tested using a dynamic mechanical analyzer. Test conditions: nitrogen was taken as the carrier gas, at a test temperature range of -40 to 80°C, a heating rate of 3°C/min, and a frequency of 1 Hz.

SMILES | Compatibility [mL]
CCCCOC(=O)C=C(CC(=O)OCCCC)C(=O)OCCCC [Example 26, tributyl aconitate] | 12.2
CCCCOC(=O)C=C(CC(=O)OCCCC)C(=O)OCCCC [Example 27, tributyl aconitate] | 12.4
CCCCOC(=O)C=C(CC(=O)OCCCC)C(=O)OCCCC [Example 28, tributyl aconitate] | 14.4
CCCCOC(=O)C=C(CC(=O)OCCCC)C(=O)OCCCC [Example 29, tributyl aconitate] | 14.9
CCCCOC(=O)C=C(CC(=O)OCCCC)C(=O)OCCCC [Example 30, tributyl aconitate] | 13.2
CCCCOC(=O)C=C(CC(=O)OCCCC)C(=O)OCCCC [Example 31, tributyl aconitate] | 12.5

Experiment: Chromaticity (platinum-cobalt colorimetry)
Type: physicochemical
Settings: aconitate/citrate products, Table 4; colour comparison at 25°C
Description: 3. Chromaticity: preparation of 500# platinum-cobalt colorimetric standard stock solution: 1.2450 g of potassium chloroplatinate and 1.0000 g of cobalt chloride were weighed, with an accuracy of 0.0002 g, the mixture was dissolved in 100 mL of hydrochloric acid, and then diluted to 1000 mL with distilled water. This solution is just the 500# colorimetric standard comparison solution.
Preparation of colorimetric standards below 500#: different amounts of the 500# stock solution was prepared, and diluted with distilled water to the volume of a colorimetric tube to prepare colorimetric standard solutions of any number. The calculation formula is as follows: V = (N×V1)/500 [formula]
In the formula, V is the volume of the 500# standard stock solution taken to prepare the N# colorimetric standard solution, in mL; V1 is the volume of the colorimetric tube used, in mL; and N is the number of the colorimetric standard solution to be prepared.
Color comparison determination was performed at 25°C.

SMILES | Chromaticity [Pt-Co]
CCCCOC(=O)C=C(CC(=O)OCCCC)C(=O)OCCCC [Example 26, tributyl aconitate] | 70
CCCCOC(=O)C=C(CC(=O)OCCCC)C(=O)OCCCC [Example 27, tributyl aconitate] | 200
CCCCOC(=O)C=C(CC(=O)OCCCC)C(=O)OCCCC [Example 28, tributyl aconitate] | 40
CCCCOC(=O)C=C(CC(=O)OCCCC)C(=O)OCCCC [Example 29, tributyl aconitate] | 60
CCCCOC(=O)C=C(CC(=O)OCCCC)C(=O)OCCCC [Example 30, tributyl aconitate] | 65
CCCCOC(=O)C=C(CC(=O)OCCCC)C(=O)OCCCC [Example 31, tributyl aconitate] | 60

Experiment: Residual amounts of fat-soluble and water-soluble pigments (HPLC)
Type: physicochemical
Settings: aconitate/citrate products, Table 4
Description: 7. Residual amounts of fat-soluble pigments and water-soluble pigments: • a high-performance liquid chromatograph (HPLC) was used, and the instrument sensitivity and stability of the detector should comply with the provisions of GB/T 16631-2008. Chromatographic column: C18 column; injector: 10 µL micro-syringe; solvent: acetonitrile (HPLC grade); acquisition time: 15 min; mobile phase: 80% acetonitrile (HPLC grade) and 20% deionized water; injection volume: 1 µL; wavelength: 230 nm.
Test: the instrument was adjusted according to the above provisions. After the baseline was stable, 0.2 µL of the sample was injected using a micro-syringe, and the integrator or chromatographic workstation was started at the same time. A pigment concentration-integral area standard curve was established by testing the integral areas of pigments with different concentrations. When the pigment content was measured, the corresponding pigment integral area was automatically given by the instrument, and the pigment concentration was obtained by comparing with the standard curve. The ratio of the pigment concentration to the sample concentration is the pigment content.

SMILES | Residual amounts of fat-soluble pigments [ppm] | Residual amounts of water-soluble pigments [ppm]
CCCCOC(=O)C=C(CC(=O)OCCCC)C(=O)OCCCC [Example 26, tributyl aconitate] | 2015 | 465
CCCCOC(=O)C=C(CC(=O)OCCCC)C(=O)OCCCC [Example 27, tributyl aconitate] | 4650 | 415
CCCCOC(=O)C=C(CC(=O)OCCCC)C(=O)OCCCC [Example 28, tributyl aconitate] | 1658 | 408
CCCCOC(=O)C=C(CC(=O)OCCCC)C(=O)OCCCC [Example 29, tributyl aconitate] | 435 | 1302
CCCCOC(=O)C=C(CC(=O)OCCCC)C(=O)OCCCC [Example 30, tributyl aconitate] | 463 | 1501
CCCCOC(=O)C=C(CC(=O)OCCCC)C(=O)OCCCC [Example 31, tributyl aconitate] | 427 | 1715

Experiment: Hardness (Shore hardness tester, GB/T 531-2008)
Type: physicochemical
Settings: PVC plastic: 100 parts PVC resin, 35 parts plasticizer, 2 parts oxidized polyethylene wax, 5 parts octyltin maleate
Description: as §1, with “The PVC plastics include 100 parts of PVC resin, 35 parts of plasticizer, 2 parts of oxidized polyethylene wax, and 5 parts of octyltin maleate.” left out

SMILES | Hardness/Shore D [Shore D]
CCCCOC(=O)C=C(CC(=O)OCCCC)C(=O)OCCCC [Example 26, tributyl aconitate] | 45
CCCCOC(=O)C=C(CC(=O)OCCCC)C(=O)OCCCC [Example 27, tributyl aconitate] | 45
CCCCOC(=O)C=C(CC(=O)OCCCC)C(=O)OCCCC [Example 28, tributyl aconitate] | 42
CCCCOC(=O)C=C(CC(=O)OCCCC)C(=O)OCCCC [Example 29, tributyl aconitate] | 42
CCCCOC(=O)C=C(CC(=O)OCCCC)C(=O)OCCCC [Example 30, tributyl aconitate] | 43
CCCCOC(=O)C=C(CC(=O)OCCCC)C(=O)OCCCC [Example 31, tributyl aconitate] | 45

Experiment: Glass transition temperature (dynamic mechanical analyzer)
Type: physicochemical
Settings: PVC plastic with 35 parts plasticizer; -40 to 80°C, 3°C/min, 1 Hz
Description: as §1

SMILES | Tg [°C]
CCCCOC(=O)C=C(CC(=O)OCCCC)C(=O)OCCCC [Example 26, tributyl aconitate] | 28.8
CCCCOC(=O)C=C(CC(=O)OCCCC)C(=O)OCCCC [Example 27, tributyl aconitate] | 28.5
CCCCOC(=O)C=C(CC(=O)OCCCC)C(=O)OCCCC [Example 28, tributyl aconitate] | 28.6
CCCCOC(=O)C=C(CC(=O)OCCCC)C(=O)OCCCC [Example 29, tributyl aconitate] | 28.8
CCCCOC(=O)C=C(CC(=O)OCCCC)C(=O)OCCCC [Example 30, tributyl aconitate] | 28.9
CCCCOC(=O)C=C(CC(=O)OCCCC)C(=O)OCCCC [Example 31, tributyl aconitate] | 29.6

Experiment: Tensile properties (GB/T 1040-2006): tensile modulus at 100%, elongation at break, elastic modulus
Type: physicochemical
Settings: PVC plastic with 35 parts plasticizer; 50 mm/min, 25°C
Description: as §1

SMILES | Elastic modulus [MPa] | Elongation at break [%] | Tensile modulus at 100% [MPa]
CCCCOC(=O)C=C(CC(=O)OCCCC)C(=O)OCCCC [Example 26, tributyl aconitate] | 178.3 | 234.1 | 17.5
CCCCOC(=O)C=C(CC(=O)OCCCC)C(=O)OCCCC [Example 27, tributyl aconitate] | 166.7 | 230.3 | 17.3
CCCCOC(=O)C=C(CC(=O)OCCCC)C(=O)OCCCC [Example 28, tributyl aconitate] | 88.5 | 248.6 | 15.2
CCCCOC(=O)C=C(CC(=O)OCCCC)C(=O)OCCCC [Example 29, tributyl aconitate] | 92.6 | 251.6 | 15.4
CCCCOC(=O)C=C(CC(=O)OCCCC)C(=O)OCCCC [Example 30, tributyl aconitate] | 134.8 | 241.7 | 15.8
CCCCOC(=O)C=C(CC(=O)OCCCC)C(=O)OCCCC [Example 31, tributyl aconitate] | 157.6 | 231.5 | 17.2

Experiment: Water content (Karl Fischer moisture meter)
Type: physicochemical
Settings: aconitate/citrate products, Table 4
Excerpt: 6. Water content: a Karl Fischer moisture meter is used to test the water content (retained to two decimal places).

SMILES | Water content [%]
CCCCOC(=O)C=C(CC(=O)OCCCC)C(=O)OCCCC [Example 26, tributyl aconitate] | 0.04
CCCCOC(=O)C=C(CC(=O)OCCCC)C(=O)OCCCC [Example 27, tributyl aconitate] | 0.05
CCCCOC(=O)C=C(CC(=O)OCCCC)C(=O)OCCCC [Example 28, tributyl aconitate] | 0.04
CCCCOC(=O)C=C(CC(=O)OCCCC)C(=O)OCCCC [Example 29, tributyl aconitate] | 0.03
CCCCOC(=O)C=C(CC(=O)OCCCC)C(=O)OCCCC [Example 30, tributyl aconitate] | 0.04
CCCCOC(=O)C=C(CC(=O)OCCCC)C(=O)OCCCC [Example 31, tributyl aconitate] | 0.03

Experiment: Acid value (KOH titration)
Type: physicochemical
Settings: aconitate/citrate products, Table 4
Description: The aconitates and citrates prepared in the above examples and comparative examples were tested for acid value, purity, chromaticity, yield, triester conversion rate, and water content. […] The mixture was neutralized with 0.02 mol·L^-1 potassium hydroxide aqueous solution until a faint pink color appears, and the consumed volume Vo was recorded. 1 g of the sample (accurate to 0.01 g) was weighed using a ground-neck conical flask, then one portion of the above neutralized solution was added. After the sample was completely dissolved, the sample was titrated with 0.02 mol·L^-1 potassium hydroxide-ethanol standard titration solution (the titration should be completed within 30 seconds) until a faint pink color appeared and persisted for 5 seconds without fading, which was considered as an end point. The consumed volume V was recorded. […] Chromatographic column: C18 column; injector: 10 µL micro-syringe; solvent: acetonitrile (HPLC grade); acquisition time: 15 min; mobile phase: 80% acetonitrile (HPLC grade) and 20% deionized water; injection volume: 1 µL; wavelength: 230 nm.

SMILES | Acid value [KOH/g]
CCCCOC(=O)C=C(CC(=O)OCCCC)C(=O)OCCCC [Example 26, tributyl aconitate] | 0.05
CCCCOC(=O)C=C(CC(=O)OCCCC)C(=O)OCCCC [Example 27, tributyl aconitate] | 0.05
CCCCOC(=O)C=C(CC(=O)OCCCC)C(=O)OCCCC [Example 28, tributyl aconitate] | 0.05
CCCCOC(=O)C=C(CC(=O)OCCCC)C(=O)OCCCC [Example 29, tributyl aconitate] | 0.05
CCCCOC(=O)C=C(CC(=O)OCCCC)C(=O)OCCCC [Example 30, tributyl aconitate] | 0.05
CCCCOC(=O)C=C(CC(=O)OCCCC)C(=O)OCCCC [Example 31, tributyl aconitate] | 0.05
